For the assay, the target named is T1, glucosylceramide synthase (Homo sapiens, UniProt Q16739).
T1 construct: made in house; host or cells: Expi293F cells (transient expression, pcDNA3.3-TOPO vector); microsome fraction used as enzyme source
T1 sequence (Q16739 1-394): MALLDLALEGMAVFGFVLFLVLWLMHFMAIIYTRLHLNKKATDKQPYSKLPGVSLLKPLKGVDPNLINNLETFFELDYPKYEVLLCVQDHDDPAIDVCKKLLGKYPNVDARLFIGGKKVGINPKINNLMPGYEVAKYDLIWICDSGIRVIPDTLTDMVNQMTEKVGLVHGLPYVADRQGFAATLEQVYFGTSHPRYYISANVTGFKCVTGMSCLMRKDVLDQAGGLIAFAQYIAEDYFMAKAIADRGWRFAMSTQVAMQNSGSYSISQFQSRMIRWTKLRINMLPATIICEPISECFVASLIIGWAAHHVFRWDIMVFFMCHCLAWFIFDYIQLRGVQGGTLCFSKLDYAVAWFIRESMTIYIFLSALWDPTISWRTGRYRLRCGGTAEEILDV
Briefly: Glucosylceramide synthase (GCS) enzyme assay, microsome fraction, C8 glucosylceramide quantified by Rapidfire MS/MS. The format is biochemical. Particulars: test compound 10 μM; 1.7 μM UDP-glucose, 3 μM C8 ceramide; room temperature 60 min; read-out: GCS enzyme inhibitory rate at 10 μM (%) (% of control). The method, boiled down: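 Test compound, 10 μM final, was run against human GCS from transfected Expi293F microsome fractions, using substrate solution of 6 μM C8 ceramide (in DOPC liposomes) plus 3.4 μM UDP-glucose, pH 7.5 Tris buffer, 60 min, room temperature. Product C8 glucosylceramide measured by Rapidfire MS/MS against an internal standard, % inhibition referenced to no-enzyme and DMSO wells.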

On to `O=C1c2ccnc(-c3ccccc3OCC(F)(F)F)c2CN1c1ccc(O[C@H]2CCOC2)cc1` [Example 188, 2-(4-{[(3S)-oxolan-3-yl]oxy}phenyl)-4-[2-(2,2,2-trifluoroethoxy)phenyl]-2,3-dihydro-1H-pyrrolo[3,4-c]pyridin-1-one], for which the inhibition at 10 µM was found to be 100%.

`Fc1ccc(N2Cc3cnn(-c4ccccc4OCC(F)(F)F)c3C2)cc1` [Example 193, 5-(4-fluorophenyl)-1-[2-(2,2,2-trifluoroethoxy)phenyl]-1,4,5,6-tetrahydropyrrolo[3,4-c]pyrazole]: the inhibition at 10 µM is 98%. Consider `CC(O)(c1ccc(N2Cc3c(ccnc3-c3ccc(F)cc3OCC(F)(F)F)C2=O)cc1)C(F)(F)F` (racemic) [Example 312, rac-4-[4-fluoro-2-(2,2,2-trifluoroethoxy)phenyl]-2-[4-(1,1,1-trifluoro-2-hydroxypropan-2-yl)phenyl]-2,3-dihydro-1H-pyrrolo [3,4-c]pyridin-1-one], for which the inhibition at 10 µM came to 99%. Take `O=C1C2=C(CN1c1ccc(OCC(F)(F)F)cc1)C(c1ccc(F)cc1OCC(F)(F)F)=NCCN2` [Example 176, 5-[4-fluoro-2-(2,2,2-trifluoroethoxy)phenyl]-7-[4-(2,2,2-trifluoroethoxy)phenyl]-2,3,6,7-tetrahydropyrrolo[3,4-e][1,4]diazepin-8(1H)-one]: the inhibition at 10 µM amounted to 100%.

On to `CSc1ccccc1-c1nccc2c1CN(c1ccc(F)cc1)C2=O` [Example 31, 2-(4-fluorophenyl)-4-[2-(methylsulfanyl)phenyl]-2,3-dihydro-1H-pyrrolo[3,4-c]pyridin-1-one], for which the inhibition at 10 µM came to 93%.

Take `CC(C)(O)c1ccc(N2Cc3c(ccnc3-c3cc(F)ccc3OCC(F)(F)F)C2=O)cc1` [Example 323, 4-[5-fluoro-2-(2,2,2-trifluoroethoxy)phenyl]-2-[4-(2-hydroxypropan-2-yl)phenyl]-2,3-dihydro-1H-pyrrolo[3,4-c]pyridin-1-one]: the inhibition at 10 µM was 99%. The result for `O=C1c2ccnc(-c3ccc(F)cc3OCC(F)(F)F)c2CN1c1ccc(OCC2(F)COC2)cc1` [Example 194, 2-{4-[(3-fluorooxetan-3-yl)methoxy]phenyl}-4-[4-fluoro-2-(2,2,2-trifluoroethoxy)phenyl]-2,3-dihydro-1H-pyrrolo[3,4-c]pyridin-1-one] reads 98%. In the case of `O=C1c2ccnc(-c3ccccc3OCC(F)F)c2CN1c1ccc(C2(O)CCC2)cc1` [Example 290, 4-[2-(2,2-difluoroethoxy)phenyl]-2-[4-(1-hydroxycyclobutyl)phenyl]-2,3-dihydro-1H-pyrrolo[3,4-c] pyridin-1-one], the inhibition at 10 µM was 100%. The figure for `O=C1c2ccnc(-c3ccc(F)cc3OCC3CC3)c2CN1c1ccc(OC(F)F)cc1` [Example 129, 4-[2-(cyclopropylmethoxy)-4-fluorophenyl]-2-[4-(difluoromethoxy)phenyl]-2,3-dihydro-1H-pyrrolo[3,4-c]pyridin-1-one] is 99%. The result for `CC(C)(O)c1ccc(N2Cc3c(cc(C4CCCOC4)nc3-c3ccccc3OCC(F)(F)F)C2=O)cc1` (racemic) [Example 387, rac-2-[4-(2-hydroxypropan-2-yl)phenyl]-6-(oxan-3-yl)-4-[2-(2,2,2-trifluoroethoxy)phenyl]-2,3-dihydro-1H-pyrrolo[3,4-c]pyridin-1-one] reads 101%; that for `Fc1ccc(N2Cc3ccnc(-c4ccc(F)cc4OCC(F)(F)F)c3C2)cc1` [Example 111, 2-(4-fluorophenyl)-4-[4-fluoro-2-(2,2,2-trifluoroethoxy)phenyl]-2,3-dihydro-1H-pyrrolo[3,4-c]pyridine], 92%. The result for `CC(C)(O)COc1cnc(N2Cc3c(ccnc3-c3ccc(F)cc3OCC(F)(F)F)C2=O)cn1` [Example 299, 4-[4-fluoro-2-(2,2,2-trifluoroethoxy)phenyl]-2-[5-(2-hydroxy-2-methylpropoxy)pyrazin-2-yl]-2,3-dihydro-1H-pyrrolo [3,4-c]pyridin-1-one] reads 97%.

`COCc1cc2c(c(-c3ccccc3OCC(F)(F)F)n1)CN(c1ccc(C(C)(C)O)cc1)C2=O` [Example 330, 2-[4-(2-hydroxypropan-2-yl)phenyl]-6-(methoxymethyl)-4-[2-(2,2,2-trifluoroethoxy)phenyl]-2,3-dihydro-1H-pyrrolo[3,4-c]pyridin-1-one]: the inhibition at 10 µM was 100%.

Take `COc1cc(C(=O)N2CCC2)ccc1-c1nccc2c1CN(c1ccc(OC(F)F)nc1)C2=O` [Example 123, 4-[4-(azetidine-1-carbonyl)-2-methoxyphenyl]-2-[6-(difluoromethoxy)pyridin-3-yl]-2,3-dihydro-1H-pyrrolo[3,4-c]pyridin-1-one]: the inhibition at 10 µM came out at 85%. The figure for `O=C1c2cc(C3CCOCC3)nc(-c3ccc(F)cc3OCC(F)(F)F)c2CN1c1ccc(F)cc1` [Example 382, 2-(4-fluorophenyl)-4-[4-fluoro-2-(2,2,2-trifluoroethoxy)phenyl]-6-(oxan-4-yl)-2,3-dihydro-1H-pyrrolo [3,4-c]pyridin-1-one] is 97%. On to `CC(C)(O)c1ccc(N2Cc3c(cc(C(C)(C)O)nc3-c3ccccc3OCC(F)F)C2=O)cn1` [Example 363, 4-[2-(2,2-difluoroethoxy)phenyl]-6-(2-hydroxypropan-2-yl)-2-[6-(2-hydroxypropan-2-yl)pyridin-3-yl]-2,3-dihydro-1H-pyrrolo [3,4-c]pyridin-1-one], for which the inhibition at 10 µM was 97%. The result for `COc1ccccc1-c1nccc2c1CN(c1ccc(C(F)(F)F)cc1)C2=O` [Example 6, 4-(2-methoxyphenyl)-2-[4-(trifluoromethyl)phenyl]-2,3-dihydro-1H-pyrrolo[3,4-c]pyridin-1-one] reads 95%; that for `O=C1c2ccnc(-c3ccccc3OCC(F)(F)F)c2CN1c1ccc(O[C@@H]2CCOC2)cc1` [Example 187, 2-(4-{[(3R)-oxolan-3-yl]oxy}phenyl)-4-[2-(2,2,2-trifluoroethoxy)phenyl]-2,3-dihydro-1H-pyrrolo[3,4-c]pyridin-1-one], 100%. The result for `O=C1c2ccnc(-c3ccccc3OCC(F)(F)F)c2CN1c1ccc(OC(F)F)nc1` [Example 75, 2-[6-(difluoromethoxy)pyridin-3-yl]-4-[2-(2,2,2-trifluoroethoxy)phenyl]-2,3-dihydro-1H-pyrrolo[3,4-c]pyridin-1-one] reads 100%; that for `O=C1c2ccnc(-c3ccc(F)cc3OCC(F)(F)F)c2CN1c1ccc(C(O)C(F)F)cc1` (single isomer, unassigned) [Example 278, (R or S)-2-[4-(2,2-difluoro-1-hydroxyethyl)phenyl]-4-[4-fluoro-2-(2,2,2-trifluoroethoxy)phenyl]-2,3-dihydro-1H-pyrrolo[3,4-c]pyridin-1-one], 99%; that for `Cc1cc(N2Cc3c(ccnc3-c3ccc(F)cc3OCC(F)(F)F)C2=O)nn1C` [Example 82, 2-(1,5-dimethyl-1H-pyrazol-3-yl)-4-[4-fluoro-2-(2,2,2-trifluoroethoxy)phenyl]-2,3-dihydro-1H-pyrrolo[3,4-c]pyridin-1-one], 88%. The result for `Cn1nc(-c2ccccc2OCC(F)(F)F)c2c1CN(c1ccc(F)cc1)C2` [Example 205, 5-(4-fluorophenyl)-1-methyl-3-[2-(2,2,2-trifluoroethoxy)phenyl]-1,4,5,6-tetrahydropyrrolo[3,4-c]pyrazole] reads 83%. Turning to `CS(=O)(=O)c1ccc(N2Cc3cnn(-c4ccccc4OCC(F)(F)F)c3C2)cc1` [Example 207, 5-[4-(methanesulfonyl)phenyl]-1-[2-(2,2,2-trifluoroethoxy)phenyl]-1,4,5,6-tetrahydropyrrolo[3,4-c]pyrazole], the inhibition at 10 µM was found to be 99%. The result for `CC(C)(O)c1ccc(N2Cc3c(ccnc3-c3ccncc3OCC(F)(F)F)C2=O)cc1F` [Example 272, 2-[3-fluoro-4-(2-hydroxypropan-2-yl)phenyl]-4-[3-(2,2,2-trifluoroethoxy)pyridin-4-yl]-2,3-dihydro-1H-pyrrolo[3,4-c]pyridin-1-one] reads 96%.

In the case of `Cc1cc2c(c(-c3ccccc3OCC(F)(F)F)n1)CN(c1ccc(OCC(C)(C)O)nc1)C2=O` [Example 367, 2-[6-(2-hydroxy-2-methylpropoxy)pyridin-3-yl]-6-methyl-4-[2-(2,2,2-trifluoroethoxy)phenyl]-2,3-dihydro-1H-pyrrolo[3,4-c] pyridin-1-one], the inhibition at 10 µM is 99%.

Turning to `CC(C)n1cc2c(c(-c3ccccc3OCC(F)(F)F)c1=O)CN(c1ccc(OCC(C)(C)O)cc1)C2=O` [Example 377, 2-[4-(2-hydroxy-2-methylpropoxy)phenyl]-5-(propan-2-yl)-7-[2-(2,2,2-trifluoroethoxy)phenyl]-1H-pyrrolo[3,4-c]pyridine-3,6(2H,5H)-dione], the inhibition at 10 µM amounted to 100%.

On to `O=C1c2ccnc(-c3ccc(F)cc3OCC(F)(F)F)c2CN1c1ccc(C2(O)COC2)c(F)c1` [Example 220, 2-[3-fluoro-4-(3-hydroxyoxetan-3-yl)phenyl]-4-[4-fluoro-2-(2,2,2-trifluoroethoxy)phenyl]-2,3-dihydro-1H-pyrrolo[3,4-c]pyridin-1-one], for which the inhibition at 10 µM worked out at 89%.

Values taken from US12528802B2, “Heterocyclic compound” (Takeda Pharmaceutical Company Limited, priority 2019, dated 2026).
